The source made the active and inactive calls. No cut-off for these calls is given here.
Columns and labels:
[1] = tested on: MCF7; assay: Induction of mitochondrial apoptosis in human MCF-7 cells assessed as formation of apoptotic bodies by Hoechst 33258 staining based fluorescence microscopic assay; type: functional, cell-based
[2] = tested on: MDA-MB-231; assay: Antitumour activity against human MDA-MB-231 cells xenografted in BALB/c nude mouse assessed as downregulation of cyclin E1 level at 15 to 30 mg/kg, ip administered once for every other day for 20 days by Western blot analysis; type: functional, organism-based; settings: dose 15-30 mg/kg, time 20.0 day
[3] = tested on: MCF7; assay: Induction of apoptosis in human MCF-7 cells assessed as increase in production of cleaved caspase-3 at 1.67 to 15 uM measured after 24 hrs by Western blot analysis; type: functional, cell-based; settings: dose 1.67-15 µM
[4] = tested on: MDA-MB-231; assay: Induction of mitochondrial apoptosis in human MDA-MB-231 cells assessed as early apoptotic cells at 5 uM measured after 24 hrs by FITC -annexin V/PI double staining based flow cytometric analysis (reference value: 2.2%); type: functional
[5] = tested on: MDA-MB-231; assay: Induction of apoptosis in human MDA-MB-231 cells assessed as upregulation of cleaved poly(ADP-ribose) polymerase level at 0.56 to 5 uM measured after 24 hrs by Western blot analysis; type: functional, cell-based; settings: dose 0.56-5 µM
[6] = tested on: MCF7; assay: Induction of mitochondrial apoptosis in human MCF-7 cells assessed as total apoptotic cells by fluorescein isothiocyanate -annexin V/PI double staining based flow cytometric analysis (reference value: 4.4%); type: functional
[7] = tested on: MCF7; assay: Cell cycle arrest in human MCF-7 cells assessed as downregulation of CDK4 expression by Western blot analysis; type: functional, cell-based

In the case of `CCCC/C=C/CCCCCCCCCC1(O)CC(=O)c2c(O)c(C)c(O)c(C)c2O1` (configuration not stated), the Activity [1] is reported as “Active”, the Activity [2] is reported as “Active” and the Activity [3] is reported as “Dose-Dependent Effect”. For the same compound, the Activity [4] was 6.1%, the Activity [5] was “Active” and the Activity [6] was 13.6%. For the same compound, the Activity [7] was “Dose-Dependent Effect”.

Source: ChEMBL document CHEMBL5030514, “Discovery of Anti-TNBC Agents Targeting PTP1B: Total Synthesis, Structure-Activity Relationship, In Vitro and In Vivo Investigations of Jamunones” (J Med Chem, 2021)
